Measured values as given in PubChem BioAssay (NCI).
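Tested at 5 concentrations; 48 h exposure; 96-well plates; endpoints linearly interpolated, else capped at highest concentration. Definition used: TGI = concentration required for complete inhibition of growth.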

How the values were obtained:
Assay in all cases: inhibition of tumour cell growth, NCI panel, 48 h
NCI-H226 lung = tested on: NCI-H226 lung
SK-MEL-5 melanoma = tested on: SK-MEL-5 melanoma
A549 NSCLC = tested on: A549 NSCLC
SK-MEL-2 melanoma = tested on: SK-MEL-2 melanoma
HCC-2998 colon = tested on: HCC-2998 colon
EKVX NSCLC = tested on: EKVX NSCLC
MALME-3M melanoma = tested on: MALME-3M melanoma
HL-60(TB) leukemia = tested on: HL-60(TB) leukemia
MOLT-4 leukemia = tested on: MOLT-4 leukemia
SK-MEL-28 melanoma = tested on: SK-MEL-28 melanoma
SW-620 colon = tested on: SW-620 colon
KM12 colon = tested on: KM12 colon
HOP-62 NSCLC = tested on: HOP-62 NSCLC
U251 CNS = tested on: U251 CNS
RPMI-8226 leukemia = tested on: RPMI-8226 leukemia
OVCAR-5 ovarian = tested on: OVCAR-5 ovarian
MCF7 breast = tested on: MCF7 breast
PC-3 prostate = tested on: PC-3 prostate
HOP-92 NSCLC = tested on: HOP-92 NSCLC

Measured: TGI

O=C(NC(C(F)(F)F)(C(F)(F)F)P(=O)(c1ccccc1)c1ccccc1)C(C(F)(F)F)C(F)(F)F
80.8 µM: PC-3 prostate
62.1 µM: MCF7 breast
56.8 µM: KM12 colon
62.3 µM: SW-620 colon
63.2 µM: HL-60(TB) leukemia
91.8 µM: RPMI-8226 leukemia
> 100 µM: NCI-H226 lung | A549 NSCLC | SK-MEL-2 melanoma | HCC-2998 colon | EKVX NSCLC | MOLT-4 leukemia | SK-MEL-28 melanoma | HOP-62 NSCLC | U251 CNS | OVCAR-5 ovarian
33.6 µM: MALME-3M melanoma
37 µM: SK-MEL-5 melanoma

NC(=O)OCC(COc1ccc(Cl)cc1)OC(=O)c1ccccc1Cl (stereo not given)
27.6 µM: U251 CNS
34.1 µM: SK-MEL-2 melanoma
56.6 µM: MOLT-4 leukemia
36.4 µM: SW-620 colon
33.1 µM: SK-MEL-5 melanoma
60.2 µM: NCI-H226 lung
49.2 µM: HOP-62 NSCLC
41.5 µM: HL-60(TB) leukemia
51.6 µM: RPMI-8226 leukemia
70 µM: EKVX NSCLC
62.8 µM: OVCAR-5 ovarian
48.6 µM: MALME-3M melanoma
45.1 µM: HOP-92 NSCLC
45.5 µM: KM12 colon
37.7 µM: SK-MEL-28 melanoma
75.8 µM: A549 NSCLC
43.5 µM: HCC-2998 colon

CN(C(=O)C12C3C4C1C1C2C3C41I)C(C)(C)C (stereo not given)
> 92.7 µM: HL-60(TB) leukemia
> 100 µM: SK-MEL-5 melanoma | A549 NSCLC | SK-MEL-2 melanoma | HCC-2998 colon | EKVX NSCLC | MALME-3M melanoma | SK-MEL-28 melanoma | SW-620 colon | KM12 colon | HOP-62 NSCLC | U251 CNS | RPMI-8226 leukemia | OVCAR-5 ovarian
> 47.3 µM: MOLT-4 leukemia
> 94.6 µM: NCI-H226 lung

CCCCCCn1c(SCC)c2ccccc2c1-c1nc(F)nc(F)n1
> 100 µM: NCI-H226 lung | SK-MEL-5 melanoma | A549 NSCLC | SK-MEL-2 melanoma | HCC-2998 colon | EKVX NSCLC | MALME-3M melanoma | HL-60(TB) leukemia | MOLT-4 leukemia | SK-MEL-28 melanoma | SW-620 colon | HOP-92 NSCLC | KM12 colon | HOP-62 NSCLC | U251 CNS | RPMI-8226 leukemia | OVCAR-5 ovarian

COC(=O)N1C[C@@]2(C=CC3(CC2)OCCO3)c2ccccc21
> 100 µM: SK-MEL-5 melanoma | A549 NSCLC | SK-MEL-2 melanoma | HCC-2998 colon | EKVX NSCLC | MOLT-4 leukemia | SK-MEL-28 melanoma | SW-620 colon | HOP-92 NSCLC | KM12 colon | HOP-62 NSCLC | U251 CNS | RPMI-8226 leukemia | OVCAR-5 ovarian | MCF7 breast | PC-3 prostate
58.4 µM: HL-60(TB) leukemia

NCC1(N2CCOCC2)C2CCCC21CO (stereo not given)
> 100 µM: NCI-H226 lung | SK-MEL-5 melanoma | A549 NSCLC | SK-MEL-2 melanoma | HCC-2998 colon | MALME-3M melanoma | HL-60(TB) leukemia | MOLT-4 leukemia | SK-MEL-28 melanoma | SW-620 colon | HOP-92 NSCLC | KM12 colon | HOP-62 NSCLC | U251 CNS | RPMI-8226 leukemia | OVCAR-5 ovarian

CCOC(=O)/C(C)=C\[C@@]1(C)O[C@@H](C)[C@@](C)(OC(C)=O)[C@@H]1OC(C)=O
> 100 µM: NCI-H226 lung | SK-MEL-5 melanoma | A549 NSCLC | SK-MEL-2 melanoma | HCC-2998 colon | EKVX NSCLC | MALME-3M melanoma | HL-60(TB) leukemia | MOLT-4 leukemia | SK-MEL-28 melanoma | SW-620 colon | HOP-92 NSCLC | KM12 colon | HOP-62 NSCLC | U251 CNS | RPMI-8226 leukemia | OVCAR-5 ovarian | MCF7 breast | PC-3 prostate

CC(=O)/C(=C\c1ccco1)C(=O)Nc1ccccc1
> 100 µM: SK-MEL-5 melanoma | A549 NSCLC | SK-MEL-2 melanoma | HCC-2998 colon | EKVX NSCLC | MALME-3M melanoma | HL-60(TB) leukemia | MOLT-4 leukemia | SK-MEL-28 melanoma | SW-620 colon | HOP-92 NSCLC | KM12 colon | HOP-62 NSCLC | U251 CNS | RPMI-8226 leukemia

COc1cc(NC(C)=O)c2[nH]c3c(C)cc(NC(C)=O)c(C)c3c2c1
> 100 µM: NCI-H226 lung | SK-MEL-5 melanoma | A549 NSCLC | SK-MEL-2 melanoma | HCC-2998 colon | EKVX NSCLC | HL-60(TB) leukemia | MOLT-4 leukemia | SK-MEL-28 melanoma | SW-620 colon | HOP-92 NSCLC | KM12 colon | U251 CNS | RPMI-8226 leukemia

O=C(O)C1CC2C3CCC2C1C3=O (stereo not given)
> 100 µM: NCI-H226 lung | SK-MEL-5 melanoma | A549 NSCLC | SK-MEL-2 melanoma | HCC-2998 colon | EKVX NSCLC | MALME-3M melanoma | HL-60(TB) leukemia | MOLT-4 leukemia | SK-MEL-28 melanoma | SW-620 colon | HOP-92 NSCLC | KM12 colon | HOP-62 NSCLC | U251 CNS | OVCAR-5 ovarian | MCF7 breast | PC-3 prostate

c1ccc(Nc2nnc(CSc3nc(-c4ccccc4)c(-c4ccccc4)[nH]3)s2)cc1
51.5 µM: EKVX NSCLC
28.5 µM: SK-MEL-5 melanoma
34.6 µM: MALME-3M melanoma
43.6 µM: OVCAR-5 ovarian
33 µM: NCI-H226 lung
44.1 µM: KM12 colon
29.8 µM: MOLT-4 leukemia
38.4 µM: SK-MEL-2 melanoma
28.1 µM: U251 CNS
44.6 µM: SK-MEL-28 melanoma
31.4 µM: HL-60(TB) leukemia
73.3 µM: A549 NSCLC
41 µM: HOP-62 NSCLC
50.4 µM: RPMI-8226 leukemia
37.7 µM: HOP-92 NSCLC

CC1=C/C(=N\OCC(=O)O)CC(c2ccc(C(C)C)cc2)C1 (stereo not given)
> 100 µM: A549 NSCLC | SK-MEL-2 melanoma | EKVX NSCLC | MALME-3M melanoma | HL-60(TB) leukemia | SW-620 colon | HOP-92 NSCLC | KM12 colon | U251 CNS | OVCAR-5 ovarian | MCF7 breast | PC-3 prostate
34.1 µM: SK-MEL-5 melanoma
68.1 µM: MOLT-4 leukemia
57.1 µM: RPMI-8226 leukemia

O=P(O)(OCC(O)O)OCC(O)O
> 100 µM: SK-MEL-5 melanoma | A549 NSCLC | SK-MEL-2 melanoma | HCC-2998 colon | EKVX NSCLC | MALME-3M melanoma | HL-60(TB) leukemia | MOLT-4 leukemia | SK-MEL-28 melanoma | SW-620 colon | HOP-92 NSCLC | KM12 colon | HOP-62 NSCLC | U251 CNS | RPMI-8226 leukemia | OVCAR-5 ovarian

COc1cc(/C=C/C(=O)c2sc(-n3nc(-c4ccccc4)cc3-c3ccccc3)nc2C)ccc1O
> 100 µM: NCI-H226 lung | SK-MEL-5 melanoma | A549 NSCLC | SK-MEL-2 melanoma | HCC-2998 colon | EKVX NSCLC | MALME-3M melanoma | HL-60(TB) leukemia | MOLT-4 leukemia | SK-MEL-28 melanoma | SW-620 colon | HOP-92 NSCLC | KM12 colon | HOP-62 NSCLC | U251 CNS | RPMI-8226 leukemia | OVCAR-5 ovarian
